Measured values taken from ChEMBL document CHEMBL1144180, “Phenylethyl cinnamides: a new series of alpha-glucosidase inhibitors from the leaves of Aegle marmelos” (Bioorg Med Chem Lett, 2008).
Calls of active or inactive are those of the source. The rule behind the calls is not given here.

Experiments:
[1] = Inhibition of alpha-glucosidase at 10.0 ug/ml
[2] = Inhibition of alpha-glucosidase at 5.0 ug/ml
[3] = Inhibition of alpha-glucosidase at 2.5 ug/ml
[4] = Inhibition of alpha-glucosidase at 1.25 ug/ml
[5] = Inhibition of alpha-glucosidase

Question: Which results are given for CC(C)=CCOc1ccc(/C=C/NC(=O)/C=C/c2ccccc2)cc1?
Answer: inhibition [1]: 30.1%; inhibition [2]: 13.2%; inhibition [3]: 8.1%; inhibition [4]: 1.3%

Question: Which results are given for COc1ccc([C@H](O)CNC(=O)c2ccccc2)cc1?
Answer: inhibition [1]: 13.5%; inhibition [2]: 11.4%; inhibition [3]: 7.8%; inhibition [4]: 1.5%

Question: Which results are given for COc1ccc([C@@H](CNC(=O)/C=C\c2ccccc2)O[C@@H]2O[C@H](CO)[C@@H](O)[C@H](O)[C@H]2O)cc1?
Answer: inhibition [1]: 8.8%; inhibition [2]: 3.4%; Activity [3]: inactive; Activity [4]: inactive

Question: With COc1ccc([C@@H](CNC(=O)/C=C/c2ccccc2)OC)cc1 as the compound, how does the inhibition [1] read?
Answer: 12.6%

Question: What about the Activity [2] of the same compound?
Answer: inactive

Question: And the Activity [3]?
Answer: inactive

Question: And the Activity [4]?
Answer: inactive

Question: Which inhibition [1] does the source give for COc1ccc([C@H](O)CNC(=O)/C=C/c2ccccc2)cc1 here?
Answer: 36%

Question: What about the inhibition [2] of the same compound?
Answer: 20.9%

Question: What about the inhibition [3] of the same compound?
Answer: 11.2%

Question: And the inhibition [4]?
Answer: 5.3%

Question: Which inhibition [1] does the source give for COc1ccc(/C=C/NC(=O)/C=C/c2ccccc2)cc1 [ANHYDROAEGELINE] here?
Answer: 56.5%

Question: What about the inhibition [2] of the same compound?
Answer: 25.2%

Question: And the inhibition [3]?
Answer: 7.5%

Question: What about the inhibition [4] of the same compound?
Answer: 1.7%

Question: And the IC50 [5]?
Answer: 35.8 µM

Question: With CC(C)=CCOc1ccc(CCNC(=O)/C=C/c2ccccc2)cc1 as the compound, how does the inhibition [1] read?
Answer: 19.7%

Question: And the inhibition [2]?
Answer: 15.9%

Question: What about the Activity [3] of the same compound?
Answer: inactive

Question: What about the Activity [4] of the same compound?
Answer: inactive

Question: For COc1ccc([C@@H](CNC(=O)/C=C/c2ccccc2)O[C@@H]2O[C@H](CO)[C@@H](O)[C@H](O)[C@H]2O)cc1, which inhibition [1] is on record?
Answer: 17.6%

Question: And the inhibition [2]?
Answer: 11.6%

Question: What about the inhibition [3] of the same compound?
Answer: 6.1%

Question: And the inhibition [4]?
Answer: 4.6%
